Laboratory results from US20240016781A1, “TREATMENT OF KRAS MUTANT CANCERS” (MEI Pharma, Inc., priority 2020, published 2024).
Read-outs that look alike come from different tables or passages of the source.

Columns and labels:
[1] = tested on: H-460 (NSCLC, KRAS Q61H); assay: Murine xenograft tumor growth inhibition, H-460; format: in vivo, SCID mice; conditions: H-460 xenograft; orally 50, 100, or 200 mg/kg OD for 11-14 days; all doses
Method: Voruciclib is an oral inhibitor of CDKs 9, 4, 6, and 1 currently being tested in Phase 1B clinical trials for B-cell malignancies and acute myeloid leukemia. Voruciclib inhibition of CDK9 leads to decreased expression of transcriptional targets of RNA Pol II, such as Mcl1 and MYC. To test whether Voruciclib could be effective in cancers driven by dysregulated KRAS-MYC signaling, ˜20 cancer cell lines with KRAS mutations (G12A, G12C, G12D, G12S, G12V, G13C, G13D, Q61H) were treated in preclinical studies with Voruciclib. MTS and Cell Titer Glo assays were used to monitor growth in vitro. […] To investigate MYC protein stability, MIA PACA-2 (G12C) cells were treated with 4 μM Voruciclib for 5-240 min, followed by SDS-PAGE and Western Blotting analysis with α-MYC and α-pSer62-MYC antibodies. […] A 60% decrease in pSer62 was observed after 5 min that reached 80% by 60 min. […] The ability of Voruciclib to inhibit tumor growth in vivo was also tested in murine xenograft models. KRAS mutant human cancer cells HCT-116 (CRC, KRAS G13D), SW-480 (CRC, KRAS G12V), and H-460 (NSCLC, KRAS Q61H) were injected subcutaneously into SCID mice. Once tumors reached 5-10 mm in diameter, Voruciclib or vehicle were administered orally at 50, 100, or 200 mg/kg OD for 11-14 days. Tumors were measured every 2-3 days, and growth inhibition relative to control was calculated. […]

[2] = tested on: Solid Tumors; assay: Monotherapy Phase 1 study in solid tumors, 2 weeks on/1 week off schedule; format: in vivo, human
[3] = tested on: Solid Tumors; assay: Monotherapy Phase 1 study in solid tumors, daily continuously schedule; format: in vivo, human
[4] = PK of voruciclib, 2 weeks of daily dosing followed by 1 week without dosing in a 21-day cycle (Table 3); format: in vivo, human; conditions: for Accumulation Ratio (AUC0-24 h): Day 13/Day 1, 2 weeks daily dosing/1 week off; for AUC(0-inf) / Cmax / half-life / AUC(0-t) / Vd/F / Tmax: human, plasma, oral; for Vd/F: read-out: Vz/F; for Tmax: median
Text: Voruciclib half life is designated as t½ in the tables (expressed in hours).
Voruciclib volume of distribution is designated as Vz/F (expressed in liters).

[5] = in vivo; conditions: SCID, mouse
Method: Animals were randomized into 2 groups when tumors reached 100 mm diameter. Group A assigned single dosing. […] Drug concentration was measured in tumor and plasma after last dose at the following time points: 0, 4, 8, 24, 48, 72 hrs. […] Concentration of voruciclib in plasma is in units of μg/ml and in μg/g for tumors.

[6] = 2 weeks on/i week off schedule, 75 to 850 mg, 29 pts
[7] = Phase 1 monotherapy studies in solid tumors (both schedules)
[8] = Daily continuously schedule, 75 to 500 mg, 39 pts
[9] = 75 mg, Day 1, 2 weeks daily dosing/1 week off, mean
[10] = 75 mg, Day 13, 2 weeks daily dosing/1 week off, mean
[11] = 150 mg, Day 1, 2 weeks daily dosing/1 week off, mean
[12] = 150 mg, Day 13, 2 weeks daily dosing/1 week off, mean
[13] = 300 mg, Day 1, 2 weeks daily dosing/1 week off, mean
[14] = 300 mg, Day 13, 2 weeks daily dosing/1 week off, n = 1
[15] = 600 mg, Day 1, 2 weeks daily dosing/1 week off, mean
[16] = 600 mg, Day 13, 2 weeks daily dosing/1 week off, mean
[17] = 850 mg, Day 1, 2 weeks daily dosing/1 week off, mean
[18] = 850 mg, Day 13, 2 weeks daily dosing/1 week off, mean

With `CN1CC[C@@H](c2c(O)cc(O)c3c(=O)cc(-c4ccc(C(F)(F)F)cc4Cl)oc23)[C@@H]1CO` [Voruciclib, (+)-trans-2-(2-Chloro-4-trifluoromethylphenyl)-5,7-dihydroxy-8-(2-hydroxymethyl-1-methylpyrrolidin-3-yl)-chromen-4-one] as the compound, how does the “tumor growth inhibition relative to control” value [1] read?
The value was over 50%.

What about the best response [2, 6] of the same compound?
The best response was 1 PR and 8 SD lasting 2 to 6 months.

What about the disease control rate [2, 6] of the same compound?
Its disease control rate is 41%.

What about the “most common AEs” value [2, 7] of the same compound?
Its value is “most common AEs involved GI tract”.

And the myelosuppression [2, 7]?
The myelosuppression was “no evidence of myelosuppression”.

What about the best response [3, 8] of the same compound?
Its best response is 12 SD lasting a median of 15 weeks.

And the disease control rate [3, 8]?
The disease control rate was 31%.

What about the “patients with decreased c-MYC expression” value ([3]; Phase 1 daily dosing study, 17/25 patients tested) of the same compound?
Its value is 68%.

What about the “Accumulation Ratio (AUC0-24 h)” value ([4]; 75 mg, mean) of the same compound?
The value was 2.937.

And the “Accumulation Ratio (AUC0-24 h)” value ([4]; 150 mg, mean)?
Its value is 2.129.

What about the “Accumulation Ratio (AUC0-24 h)” value ([4]; 300 mg, mean) of the same compound?
The value was 2.602.

What about the “Accumulation Ratio (AUC0-24 h)” value ([4]; 600 mg, mean) of the same compound?
The value was 2.064.

And the “Accumulation Ratio (AUC0-24 h)” value ([4]; 850 mg, mean)?
The value was 3.139.

And the AUC(0-inf) [4, 9]?
Its AUC(0-inf) is 4210 ng·h/mL.

What about the Cmax [4, 9] of the same compound?
Its Cmax is 193 ng/mL.

And the half-life [4, 9]?
Its half-life is 21.7 h.

What about the AUC(0-t) ([4]; 75 mg, Day 1, 2 weeks daily dosing/1 week off, mean, read-out: AUC0-24) of the same compound?
Its AUC(0-t) is 2280 ng·h/mL.

What about the AUC(0-t) ([4]; 75 mg, Day 1, 2 weeks daily dosing/1 week off, mean, read-out: AUC0-t) of the same compound?
The AUC(0-t) was 2280 ng·h/mL.

And the Vd/F [4, 9]?
Its Vd/F is 1280 L.

And the Tmax ([4]; 75 mg, Day 1, 2 weeks daily dosing/1 week off)?
Its Tmax is 4 h.

What about the AUC(0-inf) [4, 10] of the same compound?
The AUC(0-inf) was 8660 ng·h/mL.

And the Cmax [4, 10]?
The Cmax was 313 ng/mL.

What about the half-life [4, 10] of the same compound?
The half-life was 16.9 h.

And the AUC(0-t) ([4]; 75 mg, Day 13, 2 weeks daily dosing/1 week off, mean, read-out: AUC0-24)?
Its AUC(0-t) is 5290 ng·h/mL.

What about the AUC(0-t) ([4]; 75 mg, Day 13, 2 weeks daily dosing/1 week off, mean, read-out: AUC0-t) of the same compound?
Its AUC(0-t) is 5290 ng·h/mL.

And the Vd/F [4, 10]?
The Vd/F was 349 L.

And the Tmax ([4]; 75 mg, Day 13, 2 weeks daily dosing/1 week off)?
The Tmax was 4 h.

And the AUC(0-inf) [4, 11]?
The AUC(0-inf) was 15800 ng·h/mL.

What about the Cmax [4, 11] of the same compound?
The Cmax was 456 ng/mL.

What about the half-life [4, 11] of the same compound?
Its half-life is 32.5 h.

And the AUC(0-t) ([4]; 150 mg, Day 1, 2 weeks daily dosing/1 week off, mean, read-out: AUC0-24)?
The AUC(0-t) was 6980 ng·h/mL.

What about the AUC(0-t) ([4]; 150 mg, Day 1, 2 weeks daily dosing/1 week off, mean, read-out: AUC0-t) of the same compound?
The AUC(0-t) was 6980 ng·h/mL.

What about the Vd/F [4, 11] of the same compound?
The Vd/F was 1650 L.

What about the Tmax ([4]; 150 mg, Day 1, 2 weeks daily dosing/1 week off) of the same compound?
The Tmax was 4 h.

What about the AUC(0-inf) [4, 12] of the same compound?
The AUC(0-inf) was 28200 ng·h/mL.

And the Cmax [4, 12]?
The Cmax was 896 ng/mL.

And the half-life [4, 12]?
Its half-life is 26.1 h.

And the AUC(0-t) ([4]; 150 mg, Day 13, 2 weeks daily dosing/1 week off, mean, read-out: AUC0-24)?
Its AUC(0-t) is 13000 ng·h/mL.

What about the AUC(0-t) ([4]; 150 mg, Day 13, 2 weeks daily dosing/1 week off, mean, read-out: AUC0-t) of the same compound?
The AUC(0-t) was 13000 ng·h/mL.

And the Vd/F [4, 12]?
Its Vd/F is 459 L.

And the Tmax ([4]; 150 mg, Day 13, 2 weeks daily dosing/1 week off)?
Its Tmax is 4 h.

What about the AUC(0-inf) [4, 13] of the same compound?
The AUC(0-inf) was 148000 ng·h/mL.

And the Cmax [4, 13]?
Its Cmax is 1000 ng/mL.

What about the half-life [4, 13] of the same compound?
The half-life was 138 h.

What about the AUC(0-t) ([4]; 300 mg, Day 1, 2 weeks daily dosing/1 week off, mean, read-out: AUC0-24) of the same compound?
Its AUC(0-t) is 15700 ng·h/mL.

What about the AUC(0-t) ([4]; 300 mg, Day 1, 2 weeks daily dosing/1 week off, mean, read-out: AUC0-t) of the same compound?
Its AUC(0-t) is 15700 ng·h/mL.

And the Vd/F [4, 13]?
The Vd/F was 3980 L.

What about the Tmax ([4]; 300 mg, Day 1, 2 weeks daily dosing/1 week off) of the same compound?
The Tmax was 6 h.

And the Cmax ([4]; 300 mg, Day 13, 2 weeks daily dosing/1 week off, mean)?
The Cmax was 2100 ng/mL.

And the AUC(0-t) ([4]; 300 mg, Day 13, 2 weeks daily dosing/1 week off, mean, read-out: AUC0-24)?
The AUC(0-t) was 40400 ng·h/mL.

And the AUC(0-t) ([4]; 300 mg, Day 13, 2 weeks daily dosing/1 week off, mean, read-out: AUC0-t)?
The AUC(0-t) was 40400 ng·h/mL.

And the Tmax ([4]; 300 mg, Day 13, 2 weeks daily dosing/1 week off)?
The Tmax was 12 h.

And the AUC(0-inf) [4, 14]?
The AUC(0-inf) was 59300 ng·h/mL.

What about the half-life [4, 14] of the same compound?
Its half-life is 16.2 h.

And the Vd/F [4, 14]?
Its Vd/F is 185 L.

What about the AUC(0-inf) [4, 15] of the same compound?
The AUC(0-inf) was 61500 ng·h/mL.

And the Cmax [4, 15]?
Its Cmax is 1630 ng/mL.

What about the half-life [4, 15] of the same compound?
The half-life was 32.5 h.

And the AUC(0-t) ([4]; 600 mg, Day 1, 2 weeks daily dosing/1 week off, mean, read-out: AUC0-24)?
The AUC(0-t) was 24800 ng·h/mL.

And the AUC(0-t) ([4]; 600 mg, Day 1, 2 weeks daily dosing/1 week off, mean, read-out: AUC0-t)?
Its AUC(0-t) is 24800 ng·h/mL.

And the Vd/F [4, 15]?
The Vd/F was 1550 L.

And the Tmax ([4]; 600 mg, Day 1, 2 weeks daily dosing/1 week off)?
Its Tmax is 4 h.

What about the AUC(0-inf) [4, 16] of the same compound?
The AUC(0-inf) was 86000 ng·h/mL.

And the Cmax [4, 16]?
The Cmax was 2940 ng/mL.

And the half-life [4, 16]?
Its half-life is 19 h.

What about the AUC(0-t) ([4]; 600 mg, Day 13, 2 weeks daily dosing/1 week off, mean, read-out: AUC0-24) of the same compound?
The AUC(0-t) was 43500 ng·h/mL.

What about the AUC(0-t) ([4]; 600 mg, Day 13, 2 weeks daily dosing/1 week off, mean, read-out: AUC0-t) of the same compound?
Its AUC(0-t) is 43500 ng·h/mL.

And the Vd/F [4, 16]?
Its Vd/F is 394 L.

And the Tmax ([4]; 600 mg, Day 13, 2 weeks daily dosing/1 week off)?
Its Tmax is 4 h.

What about the AUC(0-inf) [4, 17] of the same compound?
Its AUC(0-inf) is 109000 ng·h/mL.

And the Cmax [4, 17]?
The Cmax was 1730 ng/mL.

And the half-life [4, 17]?
Its half-life is 50 h.

What about the AUC(0-t) ([4]; 850 mg, Day 1, 2 weeks daily dosing/1 week off, mean, read-out: AUC0-24) of the same compound?
The AUC(0-t) was 31400 ng·h/mL.

What about the AUC(0-t) ([4]; 850 mg, Day 1, 2 weeks daily dosing/1 week off, mean, read-out: AUC0-t) of the same compound?
Its AUC(0-t) is 31400 ng·h/mL.

And the Vd/F [4, 17]?
The Vd/F was 2150 L.

And the Tmax ([4]; 850 mg, Day 1, 2 weeks daily dosing/1 week off)?
The Tmax was 9 h.

What about the AUC(0-inf) [4, 18] of the same compound?
The AUC(0-inf) was 170000 ng·h/mL.

And the Cmax [4, 18]?
The Cmax was 4450 ng/mL.

What about the half-life [4, 18] of the same compound?
The half-life was 22.4 h.

What about the AUC(0-t) ([4]; 850 mg, Day 13, 2 weeks daily dosing/1 week off, mean, read-out: AUC0-24) of the same compound?
Its AUC(0-t) is 83900 ng·h/mL.

And the AUC(0-t) ([4]; 850 mg, Day 13, 2 weeks daily dosing/1 week off, mean, read-out: AUC0-t)?
Its AUC(0-t) is 83900 ng·h/mL.

And the Vd/F [4, 18]?
Its Vd/F is 315 L.

What about the Tmax ([4]; 850 mg, Day 13, 2 weeks daily dosing/1 week off) of the same compound?
The Tmax was 5 h.

And the Kp [5]?
Its Kp is over 5.
